Test results reported in BindingDB's records for doi:10.1021/jm00028a008 (1994).

Target: Oxytocin receptor (Cavia porcellus)
Assay: Inhibition of radioligand [3H]OT binding to oxytocin receptor (OT) in guinea pig myometrium membrane

Kd [nM] | SMILES
7 | CN(CC(=O)N[C@@H](CCCNC(=N)N)C(=O)NCC(N)=O)C(=O)[C@@H]1CSSC2(CCCCC2)CC(=O)N[C@@H](Cc2ccccc2)C(=O)N[C@@H](Cc2ccccc2)C(=O)N[C@@H](CCC(N)=O)C(=O)N[C@@H](CC(N)=O)C(=O)N1 [[Mca1,D-Phe2,Sar7]AVP]
21 | CCOc1ccc(C[C@H]2NC(=O)CC3(CCCCC3)SSC[C@@H](C(=O)N(C)CC(=O)N[C@@H](CCCN=C(N)N)C(=O)NCC(N)=O)NC(=O)[C@H](CC(N)=O)NC(=O)[C@H](CCC(N)=O)NC(=O)[C@H](Cc3ccccc3)NC2=O)cc1 [[Mca1,D-Tyr(OEt)2,Sar7]AVP]
18 | CC[C@H](C)[C@@H]1NC(=O)[C@@H](Cc2ccc(OC)cc2)NC(=O)CC2(CCCCC2)SSC[C@@H](C(=O)N(C)CC(=O)N[C@@H](CCCN=C(N)N)C(=O)NCC(N)=O)NC(=O)[C@H](CC(N)=O)NC(=O)[C@H](CCC(N)=O)NC1=O [[Mca1,D-Tyr(OMe)2,Sar7]AVT]
15 | CCOc1ccc(C[C@H]2NC(=O)CC3(CCCCC3)SSC[C@@H](C(=O)N(C)CC(=O)N[C@@H](CCCN=C(N)N)C(=O)NCC(N)=O)NC(=O)[C@H](CC(N)=O)NC(=O)[C@H](CCC(N)=O)NC(=O)[C@H]([C@@H](C)CC)NC2=O)cc1 [[Mpa1,D-Tyr(OEt)2,Sar7]AVT]
